Laboratory results published in patent publication US12281149B2, “Modulators of G-protein coupled receptors” (priority 2021, dated 2025).
*1 amine or outer side, *2 acyl side, *3 side chain or, on linkers, in order; H or OH if unused. Where a SMILES comes first, the peptide text is derived from it. Side-chain parts run from the residue outwards. [ ]: non-standard residue; d: D form. The star is where a group is joined. Isobutyryl(2-(3-CN-5-F-Ph)) = CC(C)(C(=O)*)c1cc(F)cc(C#N)c1; C20 diacid = O=C(O)CCCCCCCCCCCCCCCCCCC(=O)*; γGlu = O=C(O)[C@H](CCC(=O)[*:2])N[*:1]; X3 = CC(C)(C(=O)*)c1ccc(Cl)cc1; X4 = O=C(C(F)(F)c1ccc(F)cc1)*; AEEA = NCCOCCOCC(=O)O; Aib = CC(C)(N)C(=O)O; βAla = NCCC(=O)O

What was measured:
Assay type in all cases: cell-based
GLP-1 receptor [1] = target: T1, GLP-1 receptor (Homo sapiens, UniProt P43220); assay: HitHunter cAMP assay, GLP-1 receptor; details: for EC50: CHO cells stably expressing human GLP-1 receptor, cAMP accumulation, 30 min, read-out: EC50 GLP-1R; for Emax: CHO cells, cAMP, normalized to maximum signal from GLP-1 (high) and DMSO (low), read-out: Emax GLP-1R
T1 sequence (P43220 24-463): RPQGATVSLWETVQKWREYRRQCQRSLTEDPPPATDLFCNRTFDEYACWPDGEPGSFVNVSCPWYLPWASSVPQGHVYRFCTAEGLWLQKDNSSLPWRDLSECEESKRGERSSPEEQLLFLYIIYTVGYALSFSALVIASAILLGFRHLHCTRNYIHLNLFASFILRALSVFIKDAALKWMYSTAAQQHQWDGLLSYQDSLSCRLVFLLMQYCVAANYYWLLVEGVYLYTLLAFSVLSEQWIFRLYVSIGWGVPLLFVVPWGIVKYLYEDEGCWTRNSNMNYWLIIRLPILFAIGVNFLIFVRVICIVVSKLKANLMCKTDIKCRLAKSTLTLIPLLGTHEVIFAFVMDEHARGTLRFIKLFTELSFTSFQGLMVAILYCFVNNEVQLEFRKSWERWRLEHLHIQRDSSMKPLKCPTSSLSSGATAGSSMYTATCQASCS

GLP-1 receptor [2] = target: T1, GLP-1 receptor; assay: PathHunter β-arrestin assay, GLP-1 receptor; design: host or cells: PathHunter CHO-K1 GLP1R β-Arrestin Cell Line; details: β-arrestin-2 recruitment, PathHunter CHO-K1 GLP1R β-Arrestin Cell Line, 90 min at 37° C.; normalized to GLP-1; read-out: GLP-1R β Arrestin EC50
GIP receptor [3] = target: T2, GIP receptor (Homo sapiens, UniProt P48546); assay: PathHunter β-arrestin assay, GIP receptor; design: host or cells: PathHunter CHO-K1 GIPR β-Arrestin Cell Line; details: β-arrestin-2 recruitment, PathHunter CHO-K1 GIPR β-Arrestin Cell Line, 90 min at 37° C.; normalized to GIP; read-out: GIPR β Arrestin EC50
T2 sequence (P48546 22-466): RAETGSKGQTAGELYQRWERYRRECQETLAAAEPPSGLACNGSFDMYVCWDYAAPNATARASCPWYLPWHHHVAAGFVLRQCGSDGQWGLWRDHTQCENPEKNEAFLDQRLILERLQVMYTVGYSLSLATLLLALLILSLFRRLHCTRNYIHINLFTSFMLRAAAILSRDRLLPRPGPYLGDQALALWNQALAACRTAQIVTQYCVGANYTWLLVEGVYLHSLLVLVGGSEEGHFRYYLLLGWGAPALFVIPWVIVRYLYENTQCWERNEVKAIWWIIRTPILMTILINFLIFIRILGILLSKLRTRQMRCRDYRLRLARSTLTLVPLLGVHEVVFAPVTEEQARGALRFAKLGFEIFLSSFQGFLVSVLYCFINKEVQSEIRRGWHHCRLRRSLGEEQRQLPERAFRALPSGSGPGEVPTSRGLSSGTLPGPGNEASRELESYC

GIP receptor [4] = target: T2, GIP receptor; assay: HitHunter cAMP assay, GIP receptor; details: for EC50: CHO cells stably expressing GIP receptor, cAMP accumulation, 30 min, read-out: EC50 GIP-1R; for Emax: CHO cells, cAMP, normalized to maximum signal from GIP (high) and DMSO (low), read-out: Emax GIP-1R

CC[C@H](C)[C@H](NC(=O)[C@H](CC(C)C)NC(=O)[C@H](Cc1c[nH]c2ccccc12)NC(=O)[C@H](CCC(N)=O)NC(=O)[C@@H](NC(=O)[C@H](Cc1ccccc1)NC(=O)[C@H](C)NC(=O)[C@H](CCCCNC(=O)COCCOCCNC(=O)COCCOCCNC(=O)CC[C@H](NC(=O)CCCCCCCCCCCCCCCCCCC(=O)O)C(=O)O)NC(=O)[C@H](CCC(N)=O)NC(=O)[C@H](C)NC(=O)[C@@H](NC(=O)[C@H](CCCCN)NC(=O)[C@H](CC(=O)O)NC(=O)[C@H](CC(C)C)NC(=O)C(C)(C)NC(=O)[C@@H](NC(=O)[C@H](CO)NC(=O)[C@H](Cc1ccc(O)cc1)NC(=O)[C@H](CC(=O)O)NC(=O)[C@H](CO)NC(=O)[C@@H](NC(=O)[C@H](Cc1ccccc1)NC(=O)[C@@H](NC(=O)CNC(=O)[C@H](CCC(=O)O)NC(=O)CCNC(=O)C(C)(C)c1ccc(Cl)cc1)[C@@H](C)O)[C@@H](C)O)[C@@H](C)CC)[C@@H](C)CC)C(C)C)C(=O)N[C@@H](C)C(=O)NCC(=O)NCC(=O)N1CCC[C@H]1C(=O)N[C@@H](CO)C(=O)N[C@@H](CO)C(=O)NCC(=O)N[C@@H](C)C(=O)N1CCC[C@H]1C(=O)N1CCC[C@H]1C(=O)N1CCC[C@H]1C(=O)N[C@@H](CO)C(N)=O [Compound 185] ({X3-βAla}-EGTFTSDYSI[Aib]LDKIAQK([AEEA-AEEA-γGlu-C20 diacid])AFVQWLIAGGPSSGAPPPS-NH2)
EC50 (GLP-1 receptor [1]): 0.1 to 1 nM
Emax (GLP-1 receptor [1]): 101%
EC50 (GLP-1 receptor [2]): < 1000 nM
EC50 (GIP receptor [3]): > 1000 nM
EC50 (GIP receptor [4]): 10 to 100 nM
Emax (GIP receptor [4]): 95%

CC[C@H](C)[C@H](NC(=O)[C@H](CC(C)C)NC(=O)[C@H](Cc1c[nH]c2ccccc12)NC(=O)[C@H](CCC(N)=O)NC(=O)[C@@H](NC(=O)[C@H](Cc1ccccc1)NC(=O)[C@H](C)NC(=O)[C@H](CCCCNC(=O)COCCOCCNC(=O)COCCOCCNC(=O)CC[C@H](NC(=O)CCCCCCCCCCCCCCCCCCC(=O)O)C(=O)O)NC(=O)[C@H](CCC(N)=O)NC(=O)[C@H](C)NC(=O)[C@H](CCC(N)=O)NC(=O)[C@H](CCCCN)NC(=O)[C@H](CC(=O)O)NC(=O)[C@H](CC(C)C)NC(=O)C(C)(C)NC(=O)[C@@H](NC(=O)[C@H](CO)NC(=O)[C@H](Cc1ccc(O)cc1)NC(=O)[C@H](CC(=O)O)NC(=O)[C@H](CO)NC(=O)[C@@H](NC(=O)[C@H](Cc1ccccc1)NC(=O)[C@@H](NC(=O)CNC(=O)[C@H](CCC(=O)O)NC(=O)CCNC(=O)C(C)(C)c1cc(F)cc(C#N)c1)[C@@H](C)O)[C@@H](C)O)[C@@H](C)CC)C(C)C)C(=O)N[C@@H](C)C(=O)NCC(=O)NCC(=O)N1CCC[C@H]1C(=O)N[C@@H](CO)C(=O)N[C@@H](CO)C(=O)NCC(=O)N[C@@H](C)C(=O)N1CCC[C@H]1C(=O)N1CCC[C@H]1C(=O)N1CCC[C@H]1C(=O)N[C@@H](CO)C(N)=O [Compound 186] ({Isobutyryl(2-(3-CN-5-F-Ph))-βAla}-EGTFTSDYSI[Aib]LDKQAQK([AEEA-AEEA-γGlu-C20 diacid])AFVQWLIAGGPSSGAPPPS-NH2)
EC50 (GLP-1 receptor [1]): 0.1 to 1 nM
Emax (GLP-1 receptor [1]): 99%
EC50 (GLP-1 receptor [2]): > 1000 nM
EC50 (GIP receptor [3]): > 1000 nM
EC50 (GIP receptor [4]): 10 to 100 nM
Emax (GIP receptor [4]): 100%

CC[C@H](C)[C@H](NC(=O)[C@H](CO)NC(=O)[C@H](Cc1ccc(O)cc1)NC(=O)[C@H](CC(=O)O)NC(=O)[C@H](CO)NC(=O)[C@@H](NC(=O)[C@H](Cc1ccccc1)NC(=O)[C@@H](NC(=O)CNC(=O)[C@H](CCC(=O)O)NC(=O)CCNC(=O)C(C)(C)c1cc(F)cc(C#N)c1)[C@@H](C)O)[C@@H](C)O)C(=O)N[C@@H](Cc1ccc(O)cc1)C(=O)N[C@@H](CC(C)C)C(=O)N[C@@H](CC(=O)O)C(=O)N[C@@H](CCCCN)C(=O)N[C@@H](CCC(N)=O)C(=O)N[C@@H](C)C(=O)N[C@@H](C)C(=O)NC(C)(C)C(=O)N[C@@H](CCC(=O)O)C(=O)N[C@@H](Cc1ccccc1)C(=O)N[C@H](C(=O)N[C@@H](CC(N)=O)C(=O)N[C@@H](Cc1c[nH]c2ccccc12)C(=O)N[C@@H](CC(C)C)C(=O)N[C@@H](CC(C)C)C(=O)N[C@@H](C)C(=O)NCC(=O)NCC(=O)N1CCC[C@H]1C(=O)N[C@@H](CO)C(=O)N[C@@H](CO)C(=O)NCC(=O)N[C@@H](C)C(=O)N1CCC[C@H]1C(=O)N1CCC[C@H]1C(=O)N1CCC[C@H]1C(=O)N[C@@H](CO)C(=O)N[C@@H](CCCCNC(=O)COCCOCCNC(=O)COCCOCCNC(=O)CC[C@H](NC(=O)CCCCCCCCCCCCCCCCCCC(=O)O)C(=O)O)C(N)=O)C(C)C [Compound 187]
EC50 (GLP-1 receptor [1]): 1 to 10 nM
Emax (GLP-1 receptor [1]): 95%
EC50 (GLP-1 receptor [2]): > 1000 nM
EC50 (GIP receptor [3]): > 1000 nM
EC50 (GIP receptor [4]): 10 to 100 nM
Emax (GIP receptor [4]): 95%

CC[C@H](C)[C@H](NC(=O)[C@H](CC(C)C)NC(=O)[C@H](Cc1c[nH]c2ccccc12)NC(=O)[C@H](CCC(N)=O)NC(=O)[C@@H](NC(=O)[C@H](Cc1ccccc1)NC(=O)[C@H](C)NC(=O)[C@H](CCCCNC(=O)COCCOCCNC(=O)COCCOCCNC(=O)CC[C@H](NC(=O)CCCCCCCCCCCCCCCCCCC(=O)O)C(=O)O)NC(=O)[C@H](CCC(N)=O)NC(=O)[C@H](C)NC(=O)[C@@H](NC(=O)[C@H](CCCCN)NC(=O)[C@H](CC(=O)O)NC(=O)[C@H](CC(C)C)NC(=O)C(C)(C)NC(=O)[C@@H](NC(=O)[C@H](CO)NC(=O)[C@H](Cc1ccc(O)cc1)NC(=O)[C@H](CC(=O)O)NC(=O)[C@H](CO)NC(=O)[C@@H](NC(=O)[C@H](Cc1ccccc1)NC(=O)[C@@H](NC(=O)CNC(=O)[C@H](CCC(=O)O)NC(=O)CCNC(=O)C(F)(F)c1ccc(F)cc1)[C@@H](C)O)[C@@H](C)O)[C@@H](C)CC)[C@@H](C)CC)C(C)C)C(=O)N[C@@H](C)C(=O)NCC(=O)NCC(=O)N1CCC[C@H]1C(=O)N[C@@H](CO)C(=O)N[C@@H](CO)C(=O)NCC(=O)N[C@@H](C)C(=O)N1CCC[C@H]1C(=O)N1CCC[C@H]1C(=O)N1CCC[C@H]1C(=O)N[C@@H](CO)C(N)=O [Compound 188] ({X4-βAla}-EGTFTSDYSI[Aib]LDKIAQK([AEEA-AEEA-γGlu-C20 diacid])AFVQWLIAGGPSSGAPPPS-NH2)
EC50 (GLP-1 receptor [1]): 0.1 to 1 nM
Emax (GLP-1 receptor [1]): 91%
EC50 (GLP-1 receptor [2]): > 1000 nM
EC50 (GIP receptor [3]): > 1000 nM
EC50 (GIP receptor [4]): 10 to 100 nM
Emax (GIP receptor [4]): 79%

CC[C@H](C)[C@H](NC(=O)[C@H](CCCCN)NC(=O)[C@H](CC(=O)O)NC(=O)[C@H](CC(C)C)NC(=O)[C@H](Cc1ccc(O)cc1)NC(=O)[C@@H](NC(=O)[C@H](CO)NC(=O)[C@H](Cc1ccc(O)cc1)NC(=O)[C@H](CC(=O)O)NC(=O)[C@H](CO)NC(=O)[C@@H](NC(=O)[C@H](Cc1ccccc1)NC(=O)[C@@H](NC(=O)CNC(=O)[C@H](CCC(=O)O)NC(=O)CCNC(=O)C(C)(C)c1cc(F)cc(C#N)c1)[C@@H](C)O)[C@@H](C)O)[C@@H](C)CC)C(=O)N[C@@H](C)C(=O)N[C@@H](CCC(N)=O)C(=O)N[C@@H](CCCCNC(=O)COCCOCCNC(=O)COCCOCCNC(=O)CC[C@H](NC(=O)CCCCCCCCCCCCCCCCCCC(=O)O)C(=O)O)C(=O)N[C@@H](C)C(=O)N[C@@H](Cc1ccccc1)C(=O)N[C@H](C(=O)N[C@@H](CCC(N)=O)C(=O)N[C@@H](Cc1c[nH]c2ccccc12)C(=O)N[C@@H](CC(C)C)C(=O)N[C@H](C(=O)N[C@@H](C)C(=O)NCC(=O)NCC(=O)N1CCC[C@H]1C(=O)N[C@@H](CO)C(=O)N[C@@H](CO)C(=O)NCC(=O)N[C@@H](C)C(=O)N1CCC[C@H]1C(=O)N1CCC[C@H]1C(=O)N1CCC[C@H]1C(=O)N[C@@H](CO)C(N)=O)[C@@H](C)CC)C(C)C [Compound 189] ({Isobutyryl(2-(3-CN-5-F-Ph))-βAla}-EGTFTSDYSIYLDKIAQK([AEEA-AEEA-γGlu-C20 diacid])AFVQWLIAGGPSSGAPPPS-NH2)
EC50 (GLP-1 receptor [1]): 0.1 to 1 nM
Emax (GLP-1 receptor [1]): 95%
EC50 (GLP-1 receptor [2]): > 1000 nM
EC50 (GIP receptor [3]): > 1000 nM
EC50 (GIP receptor [4]): 10 to 100 nM
Emax (GIP receptor [4]): 93%
